One may read the pIC50 as the negative decadic logarithm of the IC50, by convention in mol/L.

From patent US9771379B2, “N-(2-(2-amino-6-substituted-4,4a,5,6-tetrahydropyrano[3,4-d][1,3]OXAZIN-8a(8H)-yl)-thiazol-4-yl) amides” (Pfizer Inc., priority 2015, dated 2017) come the findings set out here.

The assay deals with full length human BACE1 (Homo sapiens (Human), UniProt P56817). The assay can be described thus: BACE1 Scintillation Proximity Binding Assay (SPA). To be noted: radioligand displacement, HEK cell membranes, pH 6.0. As for the experimental part: BACE1 Scintillation Proximity Binding Assay (SPA): The BACE1 binding assay measured beta-site amyloid precursor protein-cleaving enzyme (BACE) binding as a decrease in the counts of radioligand bound in a scintillation proximity assay (SPA). […] Full length human BACE1 over-expressed in HEK cells was prepared by Pfizer scientists. Frozen stock cell paste was reacted in 50 mM sodium acetate buffer (pH=6.0) containing 3H-(4aR,6R,8aS)-8a-(2,4-difluorophenyl)-6-(1-methyl-1H-pyrazol-4-yl)-4,4a,5,6,8,8a-hexahydropyrano[3,4-d][1,3]thiazin-2-amine ligand, SPA bead and 60 μM to 600 pM of test compound in an assay volume of 27 uL. The compound plate also contained positive (BACE inhibitor) and negative (DMSO) control wells. The binding was carried out at room temperature for 30 minutes and then the plates were read on a TriLux Microbeta reader to determine the number of counts bound. The raw data was converted to percent effect compared to positive and negative control wells and the compound concentrations and % effect values for tested compounds were plotted to determine the 50% effect (1050) with a four-parameter logistic dose response equation.

Each structure is given as a SMILES string. pIC50: −log10 of the molar value.

Chain of full length human BACE1 (P56817 46-501): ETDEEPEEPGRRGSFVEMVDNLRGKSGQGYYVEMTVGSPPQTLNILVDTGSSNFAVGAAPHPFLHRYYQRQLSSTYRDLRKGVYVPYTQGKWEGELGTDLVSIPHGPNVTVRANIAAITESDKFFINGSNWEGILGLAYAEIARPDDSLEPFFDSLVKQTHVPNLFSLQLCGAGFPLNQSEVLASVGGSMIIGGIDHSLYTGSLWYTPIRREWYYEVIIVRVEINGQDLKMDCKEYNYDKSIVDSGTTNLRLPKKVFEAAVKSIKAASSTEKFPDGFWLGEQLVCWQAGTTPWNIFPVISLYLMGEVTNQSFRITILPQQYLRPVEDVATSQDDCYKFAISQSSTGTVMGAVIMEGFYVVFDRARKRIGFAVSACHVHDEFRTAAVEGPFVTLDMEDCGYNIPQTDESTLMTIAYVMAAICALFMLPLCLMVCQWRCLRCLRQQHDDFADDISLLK

In turn, `NC1=N[C@@]2(c3nc(NC(=O)c4cnc(OC(F)F)cn4)cs3)CO[C@@H](C(F)(F)F)C[C@H]2CO1` [Example 20, N-{2-[(4aR,6R,8aR)-2-amino-6-(trifluoromethyl)-4,4a,5,6-tetrahydropyrano [3,4-d][1,3]oxazin-8a(8H)-yl]-1,3-thiazol-4-yl}-5-(difluoromethoxy)pyrazine-2-carboxamide] had a pIC50 of 6.91.

`COc1cnc(C(=O)Nc2csc([C@]34CO[C@@H](C(F)(F)F)C[C@H]3COC(N)=N4)n2)c(C)n1` [Example 23, N-{2-[(4aR,6R,8aR)-2-amino-6-(trifluoromethyl)-4,4a,5,6-tetrahydropyrano [3,4-d][1,3]oxazin-8a(8H)-yl]-1,3-thiazol-4-yl}-5-methoxy-3-methylpyrazine-2-carboxamide] had a pIC50 of 6.79. As for `Cc1cc(C#N)cnc1C(=O)Nc1csc([C@]23CO[C@@H](C(F)(F)F)C[C@H]2COC(N)=N3)n1` [Example 21, N-{2-[(4aR,6R,8aR)-2-amino-6-(trifluoromethyl)-4,4a,5,6-tetrahydropyrano [3,4-d][1,3]oxazin-8a(8H)-yl]-1,3-thiazol-4-yl}-5-cyano-3-methylpyridine-2-carboxamide], the negative-log IC50 (pIC50) is 8.30. Compared with the last compound, the pIC50 is 1.51 log units higher. With `Cc1nc(OC(F)F)cnc1C(=O)Nc1csc([C@]23CO[C@@H](C(F)(F)F)C[C@H]2COC(N)=N3)n1` [Example 22, N-{2-[(4aR,6R,8aR)-2-amino-6-(trifluoromethyl)-4,4a,5,6-tetrahydropyrano [3,4-d][1,3]oxazin-8a(8H)-yl]-1,3-thiazol-4-yl}-5-(difluoromethoxy)-3-methyl pyrazine-2-carboxamide], the pIC50 was 7.89.
